# Data published in patent US4294838A, “Certain heterocyclic sulfoximide derivatives” (priority 1977, dated 1981).
# Like-named read-outs stand apart in the source and are kept apart here.
# Experiments:
# [1] = test system: acetylcholine-spasm (bronchospasm); experiment: Bronchospasmolytic activity (Konzett and Roessler), acetylcholine-spasm; assay type: in vivo, guinea pigs; conditions: Cavia porcellus, iv, 2 min; guinea pig, i.v., 2 min before acetylcholine; read-out: ED100 Acetyl-choline (bronchospasmolytic)
# Protocol: (§1) The method described by Konzett and Roessler was employed (Arch.exp.Path.Pharmak. 195, 72 (1940).
# (§2) Experimental animals were guinea pigs weighing between 280 and 380 g. The animals were kept under urethane narcosis (1.5 g/kg i.m.) and their chests opened. The animals received artificial respiration by means of a respiratory pump. The respiratory pressure was adjusted by a mercury manometer. Every 4 minutes a bronchospasm was caused by intravenous application (vena jugularis) of spasmodics. These were acetylcholine and histamine. Two minutes prior to the injection of a spasmodic, the substances under investigation were administered, i.e. again by intravenous injection. […] With respect to the histamine-spasm they were active in the range of […].
# [2] = test system: ileum preparations, acetylcholine spasm; experiment: Spasmolytic activity on isolated ileum (Magnus), acetylcholine spasm; design: species or system Guinea pigs; conditions: Cavia porcellus, guinea pig ileum, 37° C, acetylcholine 4×10^-7 g/ml; for IC50: read-out: ED50 Acetylcholine (spasmolytic)
# Protocol: (§3) The method described by Magnus was employed [Therap. Grundlagen der Experimentellen Arzneimittelforschung, Wiss. Verlagsgesellschaft, Stuttgart (1965) page 241].
# (§4) Guinea pigs of both sexes weighing between 200 and 500 g were killed by cervical blow. After that they were allowed to bleed and then laparotomized. About 15 cm of the distal ileum were then placed into a Krebs-Henseleit-solution at 37° C.
# (§5) Ileum preparations of about 1 cm length were fixed in a special vessel containing 25 ml of the Krebs-Henseleit-solution which were percolated by a gas mixture (Carbogen) consisting of 95% oxygen and 5% carbon dioxide. The temperature of the bath was maintained at 37° C. The movements of the ileum preparations were observed by a lampblack-kymograph.
# (§6) Every 10 minutes single spasms were caused with solutions of acetylcholine (4×10^-7 g/ml) barium chloride (4×10^-4 g/ml) and histamine (8×10^-6 g/ml) in the Krebs-Henseleit-solution. Five minutes after application the spasms were stopped by rinsing the ileum segments with a Krebs-Henseleit-solution which was free of spasmodics. The tested compounds were added to ther Krebs-Henseleit-solution 2 minutes after causing the spasms.
# [3] = Acute toxicity in mice (LD50, Litchfield and Wilcoxon); conditions: mouse, in vivo, male NRMI mice
# Protocol: The acute toxicity has been determined in male mice (NRMI strain) weighing 17 to 21 g. The animals were fasted 24 hours prior to the trial. Water was offered ad libidum. The substances were administered subcutaneously and by using a gastric tube in increasing doses to groups consisting of 6 animals. The animals were observed over a period of 24 hours. The LD50 values were determined according to the method of Litchfield and Wilcoxon (Therap. Grundlagen der experimentellen Arzneimittelforschung--Ther. Fundamentals of Experimental Durg Research--1965--page 82). The findings were compiled as average values in the following tables: […]
# [4] = test system: histamine-spasm (bronchospasm); experiment: Bronchospasmolytic activity (Konzett and Roessler), histamine-spasm; assay type: in vivo, guinea pigs; conditions: Cavia porcellus, iv, 2 min; guinea pig, i.v., 2 min before histamine
# Protocol: as §1, §2
# [5] = test system: ileum preparations, barium chloride spasm; experiment: Spasmolytic activity on isolated ileum (Magnus), barium chloride spasm; design: species or system Guinea pigs; conditions: Cavia porcellus, guinea pig ileum, 37° C, barium chloride 4×10^-4 g/ml; for IC50: read-out: ED50 Barium-Chloride (spasmolytic)
# Protocol: as §3, §4, §5, §6
# [6] = test system: ileum preparations, histamine spasm; experiment: Spasmolytic activity on isolated ileum (Magnus), histamine spasm; design: species or system Guinea pigs; conditions: Cavia porcellus, guinea pig ileum, 37° C, histamine 8×10^-6 g/ml; for IC50: read-out: ED50 Histamine (spasmolytic)
# Protocol: as §3, §4, §5, §6
# [7] = po, w.i.g. (gastric tube), read-out: Acute Toxicity LD50, w.i.g.
# [8] = sc, subcutaneous, read-out: Acute Toxicity LD50, S.C.
SMILES,ED100 [1] [mg/kg],IC50 [2] [µg/mL],"LD50 at 24 h [3, 7] [mg/kg]","LD50 at 24 h [3, 8] [mg/kg]",ED100 [4] [mg/kg],IC50 [5] [µg/mL],IC50 [6] [µg/mL],IC100 ([2]; (ED100)) [µg/mL],IC100 ([5]; (ED100)) [µg/mL],IC100 ([6]; (ED100)) [µg/mL]
"CCN(CC)CCN=S(=O)(c1ccccc1)c1cccs1 (stereo not drawn) [Example 1, N-(2-Diethylaminoethyl)-S-phenyl-S-(2-thienyl)-sulphoximide]",1,1,200,150,> 4,80,5,–,–,–
"C[N+](C)(C)CCCN=S(=O)(c1ccccc1)c1cccs1 (stereo not drawn) [Example 2, N-(3-trimethylammoniumpropyl)-S-phenyl-S-(2-thienyl)-sulphoximide iodide]",–,5,> 400,300,–,–,–,–,–,–
CN(C)CCCN=S(=O)(c1ccccc1)c1cccs1 (centres unmarked) [Example 2],–,> 1,< 800,600,–,> 10,50,–,–,–
"O=S(=NCCN1CCCC1)(c1ccccc1)c1cccs1 (stereo not drawn) [Example 3, N-(2-Pyrrolidinoethyl)-S-phenyl-S-(2-thienyl)-sulphoximide]",–,> 1,150,–,–,–,5,–,–,–
"CCN(CC)CCN=S(=O)(c1ccccc1)c1ccsc1 (stereo not drawn) [Example 4, N-(2-Diethylaminoethyl)-S-phenyl-S-(3-thienyl)-sulphoximide]",> 2,1,200,150,> 8,40,10,–,–,–
"CCN(CC)CCN=S(=O)(c1cccs1)c1cccs1 [Example 5, N-(2-Diethylaminoethyl)-S,S-bis-(2-thienyl)-sulphoximide]",2,1,250,100,> 8,40,10,–,–,–
"O=S(=NCCN1CCCCC1)(c1cccs1)c1cccs1 [Example 6, N-(2-Piperidinoethyl)-S,S-bis-(2-thienyl)-sulphoximide]",–,5,200,–,–,80,10,–,–,–
"O=S(=NCCN1CCOCC1)(c1cccs1)c1cccs1 [Example 7, N-(2-Morpholinoethyl)-S,S-bis-(2-thienyl)-sulphoximide]",–,4,1000,–,–,–,40,–,–,–
"CCN(CC)CCN=S(=O)(c1ccsc1)c1cccs1 (stereo not drawn) [Example 8, N-(2-Diethylaminoethyl)-S-(2-thienyl)-S-(3-thienyl)-sulphoximide]",2,0.5,< 300,250,4,80,2,–,–,–
"CCN(CC)CCN=S(=O)(c1ccsc1)c1ccsc1 [Example 9, N-(2-Diethylaminoethyl)-S,S-bis-(3-thienyl)-sulphoximide]",4,0.25,> 30,30,> 8,–,10,–,–,–
"CCN(CC)CCN=S(=O)(c1ccccc1)c1ccco1 (stereo not drawn) [Example 10, N-(2-Diethylaminoethyl)-S-(2-furyl)-S-phenyl-sulphoximide]",–,–,400,150,–,–,–,–,–,–
"CCN(CC)CCN=S(=O)(c1ccccc1)c1cccnc1 (stereo not drawn) [Example 12, N-(2-Diethylaminoethyl)-S-phenyl-S-(3-pyridyl)-sulphoximide]",–,–,1600,–,–,–,–,–,–,–
"CCN(CC)CCN=S(=O)(c1ccccc1)c1ccccc1 [Sulfoxifen-Phosphate, N(2-Diethylaminoethyl)-diphenyl-sulfoximin, reference compound]",4,0.1,180,175,4,40,1,1,80,10
